Biological target: T1, KCNQ2/3 channels (Homo sapiens, UniProt O43525+O43526)
T1 construct: expressed in transfected cells
Assay: Fluorescence assay using a voltage sensitive dye (fluorimetry)
Assay type: cell-based
Conditions: CHO-K1 cells expressing KCNQ2/3; for Emax: CHO-K1, plateau effect relative to saturated retigabine (50 μM) = 100%, negative values = antagonistic, read-out: Fluorimetry % efficacy (retigabine = 100%); for EC50: IC50 where % efficacy is negative, read-out: Fluorimetry EC50/IC50

T1 sequence (O43526 whole entry): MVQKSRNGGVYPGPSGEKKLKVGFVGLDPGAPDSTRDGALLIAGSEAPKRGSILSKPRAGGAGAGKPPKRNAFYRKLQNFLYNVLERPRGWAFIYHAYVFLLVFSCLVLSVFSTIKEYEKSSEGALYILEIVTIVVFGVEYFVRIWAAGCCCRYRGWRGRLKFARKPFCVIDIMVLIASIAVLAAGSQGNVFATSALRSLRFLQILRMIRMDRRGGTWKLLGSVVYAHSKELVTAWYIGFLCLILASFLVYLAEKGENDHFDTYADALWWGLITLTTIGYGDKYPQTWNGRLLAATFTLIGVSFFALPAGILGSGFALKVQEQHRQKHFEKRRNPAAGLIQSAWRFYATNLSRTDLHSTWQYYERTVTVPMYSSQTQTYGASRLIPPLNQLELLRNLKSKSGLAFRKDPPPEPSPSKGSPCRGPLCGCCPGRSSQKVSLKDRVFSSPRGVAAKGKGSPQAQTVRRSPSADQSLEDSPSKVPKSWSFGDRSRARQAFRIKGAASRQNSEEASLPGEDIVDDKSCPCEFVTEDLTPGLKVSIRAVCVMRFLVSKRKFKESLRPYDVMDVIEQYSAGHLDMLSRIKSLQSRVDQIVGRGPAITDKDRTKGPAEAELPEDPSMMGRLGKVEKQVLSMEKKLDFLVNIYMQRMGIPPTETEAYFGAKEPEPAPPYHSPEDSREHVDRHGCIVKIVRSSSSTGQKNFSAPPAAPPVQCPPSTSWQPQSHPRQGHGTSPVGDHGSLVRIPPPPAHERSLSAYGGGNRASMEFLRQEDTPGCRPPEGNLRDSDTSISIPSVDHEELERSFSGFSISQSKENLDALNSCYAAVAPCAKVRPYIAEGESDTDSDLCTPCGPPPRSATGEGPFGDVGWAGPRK
T1 sequence (O43525 whole entry): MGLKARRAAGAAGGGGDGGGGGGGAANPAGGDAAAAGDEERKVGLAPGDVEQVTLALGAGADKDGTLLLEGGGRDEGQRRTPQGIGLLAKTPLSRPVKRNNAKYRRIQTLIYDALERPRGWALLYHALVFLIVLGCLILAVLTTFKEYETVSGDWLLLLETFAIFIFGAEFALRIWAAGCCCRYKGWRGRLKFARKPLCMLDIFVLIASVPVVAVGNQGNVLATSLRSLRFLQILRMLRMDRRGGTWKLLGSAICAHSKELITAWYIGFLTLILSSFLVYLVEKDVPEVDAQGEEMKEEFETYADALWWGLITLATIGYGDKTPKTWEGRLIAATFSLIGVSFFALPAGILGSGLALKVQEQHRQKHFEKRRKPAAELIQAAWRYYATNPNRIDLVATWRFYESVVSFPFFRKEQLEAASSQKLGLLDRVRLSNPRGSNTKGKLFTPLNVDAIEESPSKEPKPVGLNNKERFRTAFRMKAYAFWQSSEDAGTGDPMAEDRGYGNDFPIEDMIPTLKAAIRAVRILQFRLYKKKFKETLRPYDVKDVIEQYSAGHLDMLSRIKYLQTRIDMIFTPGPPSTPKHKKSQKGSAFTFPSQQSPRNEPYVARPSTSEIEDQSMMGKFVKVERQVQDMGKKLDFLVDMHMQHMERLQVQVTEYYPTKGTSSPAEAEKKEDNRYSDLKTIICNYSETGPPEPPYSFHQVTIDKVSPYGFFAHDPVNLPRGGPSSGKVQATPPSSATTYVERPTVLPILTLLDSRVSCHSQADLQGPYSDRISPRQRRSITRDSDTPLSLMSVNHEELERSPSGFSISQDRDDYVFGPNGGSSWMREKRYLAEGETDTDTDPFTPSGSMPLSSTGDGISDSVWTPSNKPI

SMILES	Emax	EC50
CCSc1nc(N2CCOCC2)cc(C)c1C(=O)NCc1ccc(F)c(OC)c1 [Example 284, 2-Ethylsulfanyl-N-[(4-fluoro-3-methoxy-phenyl)-methyl]-4-methyl-6-morpholin-4-yl-pyridine-3-carboxylic acid amide]	94%	648 nM
CCSc1nc(N2CCC(OC)C2)cc(C)c1C(=O)NCc1cccc(F)c1 (centres unmarked) [Example 30, 2-Ethylsulfanyl-N-[(3-fluorophenyl)-methyl]-6-(3-methoxy-pyrrolidin-1-yl)-4-methyl-pyridine-3-carboxylic acid amide]	144%	1320 nM
CCSc1nc(N2CCOCC2)cc(C)c1C(=O)NCc1ccc(N(C)C)cc1 [Example 148, N-[(4-Dimethylaminophenyl)-methyl]-2-ethylsulfanyl-4-methyl-6-morpholin-4-yl-pyridine-3-carboxylic acid amide]	105%	3620 nM
COC[C@@H]1CN(c2cc(C)c(C(=O)NCc3ccc(Cl)cc3)c(C3CC3)n2)CCO1 [Example 290, N-[(4-Chlorophenyl)-methyl]-2-cyclopropyl-6-[(2S)-2-(methoxymethyl)-morpholin-4-yl]-4-methyl-pyridine-3-carboxylic acid amide]	136%	314 nM
CCSc1nc(N2CC(=O)C2)cc(C)c1C(=O)NCc1cccc(F)c1 [Example 112, 2-Ethylsulfanyl-N-[(3-fluorophenyl)-methyl]-4-methyl-6-(3-oxo-azetidin-1-yl)-pyridine-3-carboxylic acid amide]	130%	2740 nM
CCSc1nc(N(C)C2CCCOC2)cc(C)c1C(=O)NCCCC(C)(C)C (centres unmarked) [Example 280, N-(4,4-Dimethyl-pentyl)-2-ethylsulfanyl-4-methyl-6-(methyl-tetrahydro-pyran-3-yl-amino)-pyridine-3-carboxylic acid amide]	165%	302 nM
CCSc1nc(N2CCOCC2)cc(C)c1C(=O)NCc1ccc(S(C)(=O)=O)cc1 [Example 247, 2-Ethylsulfanyl-4-methyl-N-[(4-methylsulfonyl-phenyl)-methyl]-6-morpholin-4-yl-pyridine-3-carboxylic acid amide]	38%	
Cc1cc(N2CCOCC2)nc(N(C)C)c1C(=O)NCc1cccc(F)c1 [Example 65, 2-Dimethylamino-N-[(3-fluorophenyl)-methyl]-4-methyl-6-morpholin-4-yl-pyridine-3-carboxylic acid amide]	238%	1060 nM
CC(C)c1cc(N2CCOCC2)nc(C(C)C)c1C(=O)NCc1ccc(Cl)cc1 [Example 357, N-[(4-Chlorophenyl)-methyl]-2,4-diisopropyl-6-morpholin-4-yl-pyridine-3-carboxylic acid amide]	17%	
CCSc1nc(N2CCOCC2)cc(C)c1C(=O)NCc1cccc(COC)c1 [Example 131, 2-Ethylsulfanyl-N-[[3-(methoxymethyl)-phenyl]-methyl]-4-methyl-6-morpholin-4-yl-pyridine-3-carboxylic acid amide]	137%	1250 nM
CCSc1nc(N2CC(O)C2)cc(C)c1C(=O)NCc1cccc(F)c1 [Example 7, 2-Ethylsulfanyl-N-[(3-fluorophenyl)-methyl]-6-(3-hydroxy-azetidin-1-yl)-4-methyl-pyridine-3-carboxylic acid amide]	44%	
CCSc1nc(N2CCOCC2)cc(C)c1C(=O)NCCOC(C)C [Example 103, 2-Ethylsulfanyl-N-(2-isopropoxy-ethyl)-4-methyl-6-morpholin-4-yl-pyridine-3-carboxylic acid amide]	142%	4520 nM
CCCCCNC(=O)c1c(C)cc(N2CCOCC2)nc1SCC [Example 81, 2-Ethylsulfanyl-4-methyl-6-morpholin-4-yl-N-pentyl-pyridine-3-carboxylic acid amide]	163%	662 nM
Cc1cc(N2CCOCC2)nc(OC2COC2)c1C(=O)NCc1cccc(F)c1 [Example 317, N-[(3-Fluorophenyl)-methyl]-4-methyl-6-morpholin-4-yl-2-(oxetan-3-yloxy)-pyridine-3-carboxylic acid amide]	116%	1120 nM
CCSc1nc(N2CCNC(=O)C2)cc(C)c1C(=O)NCc1cccc(F)c1 [Example 143, 2-Ethylsulfanyl-N-[(3-fluorophenyl)-methyl]-4-methyl-6-(3-oxo-piperazin-1-yl)-pyridine-3-carboxylic acid amide]	28%	
CCSc1nc(N2CCC3(COC3)C2)cc(C)c1C(=O)NCc1cccc(F)c1 [Example 222, 2-Ethylsulfanyl-N-[(3-fluorophenyl)-methyl]-4-methyl-6-(2-oxa-6-azaspiro[3.4]octan-6-yl)-pyridine-3-carboxylic acid amide]	56%	7310 nM

The next lines start with the values.

Emax	EC50	SMILES
129%	17 nM	COC[C@H]1COCCN1c1cc(C)c(C(=O)NCc2ccc(Cl)cc2)c(C(C)C)n1 [Example 277, N-[(4-Chlorophenyl)-methyl]-2-isopropyl-6-[(3S)-3-(methoxymethyl)-morpholin-4-yl]-4-methyl-pyridine-3-carboxylic acid amide]
93%	278 nM	CCSc1nc(N(C)c2ccccc2)cc(C)c1C(=O)NCc1cccc(F)c1 [Example 302, 2-Ethylsulfanyl-N-[(3-fluorophenyl)-methyl]-4-methyl-6-(N-methyl-anilino)-pyridine-3-carboxylic acid amide]
168%	71 nM	Cc1cc(N2CCOCC2)nc(C(C)C)c1C(=O)NCc1ccc(F)cc1 [Example 309, N-[(4-Fluorophenyl)-methyl]-2-isopropyl-4-methyl-6-morpholin-4-yl-pyridine-3-carboxylic acid amide]
193%	80 nM	CCCc1nc(N2CCOCC2)cc(C)c1C(=O)NCc1cc(F)cc(F)c1 [Example 322, N-[(3,5-Difluoro-phenyl)-methyl]-4-methyl-6-morpholin-4-yl-2-propyl-pyridine-3-carboxylic acid amide]
-83%	253 nM	COc1nc(N2CCOCC2)cc(C)c1C(=O)NCc1ccccc1-c1ccccc1 [Example 88, 2-Methoxy-4-methyl-6-morpholin-4-yl-N-[(2-phenyl-phenyl)-methyl]-pyridine-3-carboxylic acid amide]
148%	99 nM	Cc1cc(N2CCOCC2)nc(SC(C)C)c1C(=O)NCc1cccc(F)c1 [Example 37, N-[(3-Fluorophenyl)-methyl]-2-(isopropylsulfanyl)-4-methyl-6-morpholin-4-yl-pyridine-3-carboxylic acid amide]
202%	37 nM	CCSc1nc(N2CCOCC2)cc(C)c1C(=O)NCCC(C)C(C)(C)C (centres unmarked) [Example 339, 2-Ethylsulfanyl-4-methyl-6-morpholin-4-yl-N-(3,4,4-trimethyl-pentyl)-pyridine-3-carboxylic acid amide]
229%	62 nM	CCCc1nc(N2CCOCC2)cc(C)c1C(=O)NCCCC(C)(C)C [Example 313, N-(4,4-Dimethyl-pentyl)-4-methyl-6-morpholin-4-yl-2-propyl-pyridine-3-carboxylic acid amide]
239%	141 nM	CCN(C)c1nc(N2CCOCC2)cc(C)c1C(=O)NCc1cc(F)cc(F)c1 [Example 204, N-[(3,5-Difluoro-phenyl)-methyl]-2-(ethyl-methyl-amino)-4-methyl-6-morpholin-4-yl-pyridine-3-carboxylic acid amide]
43%	54 nM	CCSc1nc(N2CCOCC2)cc(C)c1C(=O)NCc1ccc(C(F)(F)F)cc1F [Example 135, 2-Ethylsulfanyl-N-[[2-fluoro-4-(trifluoromethyl)-phenyl]-methyl]-4-methyl-6-morpholin-4-yl-pyridine-3-carboxylic acid amide]
153%	282 nM	CCSc1nc(N2CC3CCC(C2)O3)cc(C)c1C(=O)NCc1cccc(F)c1 [Example 325, 2-Ethylsulfanyl-N-[(3-fluorophenyl)-methyl]-4-methyl-6-(8-oxa-3-azabicyclo[3.2.1]octan-3-yl)-pyridine-3-carboxylic acid amide]
236%	172 nM	COc1nc(N2CCOCC2)cc(C)c1C(=O)NCCCC(C)(C)C [Example 86, N-(4,4-Dimethyl-pentyl)-2-methoxy-4-methyl-6-morpholin-4-yl-pyridine-3-carboxylic acid amide]
170%	301 nM	CCSc1nc(N(C)C2CCOCC2)cc(C)c1C(=O)NCc1cccc(F)c1 [Example 258, 2-Ethylsulfanyl-N-[(3-fluorophenyl)-methyl]-4-methyl-6-(methyl-tetrahydro-pyran-4-yl-amino)-pyridine-3-carboxylic acid amide]
173%	71 nM	CCSc1nc(N2CCOC[C@H]2C)cc(C)c1C(=O)NCc1ccc(F)c(F)c1 [Example 225, N-[(3,4-Difluoro-phenyl)-methyl]-2-ethylsulfanyl-4-methyl-6-[(3R)-3-methyl-morpholin-4-yl]-pyridine-3-carboxylic acid amide]
211%	142 nM	CCCc1nc(N2CCOC[C@H]2C)cc(C)c1C(=O)NCc1ccc(F)cc1 [Example 197, N-[(4-Fluorophenyl)-methyl]-4-methyl-6-[(3R)-3-methyl-morpholin-4-yl]-2-propyl-pyridine-3-carboxylic acid amide]
-97%	63 nM	CCSc1nc(N2CCOCC2)cc(C)c1C(=O)NCc1ccccc1-c1ccccc1 [Example 50, 2-Ethylsulfanyl-4-methyl-6-morpholin-4-yl-N-[(2-phenyl-phenyl)-methyl]-pyridine-3-carboxylic acid amide]
167%	77 nM	CCCSc1nc(N2CCOCC2)cc(C)c1C(=O)NCc1cccc(F)c1 [Example 56, N-[(3-Fluorophenyl)-methyl]-4-methyl-6-morpholin-4-yl-2-(propylsulfanyl)-pyridine-3-carboxylic acid amide]

Reference: patent US9168259B2 (GRÜNENTHAL GMBH, priority 2010, dated 2015)
